From patent publication US10053423B2, “Radioiodinated compounds” (NUtech Ventures, priority 2014, dated 2018)

Columns and labels:
[1] = Thermal stability to iodine loss during the deprotection reaction; assay type: physicochemical; conditions: during the deprotection reaction (6M HCl, 100° C., 10 minutes), compared to MIBG
Procedure: The residue in the reactor vial was dissolved in 200 μl of 6M HCl, and heated at 100° C. for 10 minutes. The solution was allowed to cool for one minute and neutralized with 120 μl of 10M NaOH. A reverse phase (C18) sep pak was rinsed with ethanol (10 mL) and water (10 mL) and blown dry. The neutralized solution ([…]) was passed through the sep pak and the sep pak was rinsed with 2 mL of water (to elute any remaining salts) and blown dry. Ethanol (0.8 mL) was passed through the sep pak to elute the radiolabeled benzylguanidine derivative. Ethanol was removed using a stream of nitrogen before the material was purified by HPLC.
124I-2,4-difluoro-3-iodobenzylguanidine was prepared in 80±6% radiochemical yield (n=4) at the 1-2 mCi scale using the procedure outlined in Example 26. Following isolation, the product was >99% chemically and radiochemically pure, as assayed by HPLC.

[2] = Imaging (PET/CT) and biodistribution study of 124I-MIBG prepared using two methods; assay type: in vivo; conditions: male Sprague-Dawley rats, single intravenous dose, PET/CT scans at 1, 4, and 24 hours post injection; diaryliodonium salt precursor preparation vs conventional method (stannylated resin precursor)
Procedure: To determine whether the method of preparation of MIBG affected the biodistribution of the compound, high specific activity ^124I-MIBG was prepared using the diaryliodonium salt method (Example 27) and the conventional stannylated resin precursor; these compounds were imaged in rodent models.
Eight male Sprague-Dawley rats were used for the study. Upon arrival at the laboratory, each animal was inspected, uniquely identified with the animal number written on their tails, and weighed. The animals were judged to be in good health and were immediately placed in acclimation. Animals were between 6-14 weeks of age and weighed 440.5±36.4 g.
After a single intravenous dose of ^124I-MIBG prepared by diaryliodonium salt precursor, or ^124I-MIBG prepared with conventional method, Sprague-Dawley rats were given PET/CT scans at 1, 4, and 24 hours post injection of radiotracer. Biodistribution analysis was performed to quantify the amount of uptake in each animal's heart, liver, kidneys, thyroid, quadriceps muscle, and whole body as a function of time. Data is presented in units of μCi, μCi/mm3, % ID, and % ID/g. The radiochemical purity of all compounds as assessed by HPLC was >97% within an hour of administration.

Row | SMILES | thermal stability to iodine loss [1] | biodistribution (uptake in heart, liver, kidneys, thyroid, quadriceps muscle, and whole body as a function of time) [2]
1 | N=C(N)NCc1ccc(F)c([124I])c1F [124I-2,4-difluoro-3-iodobenzylguanidine, ^124I-2,4-difluoro-3-iodobenzylguanidine] | greater thermal stability to iodine loss | 
2 | NC(N)=NCc1cccc([124I])c1 [^124I-MIBG] |  | no noted qualitative or quantitative difference
